Source: patent US11072581B2, “N-acyl-arylsulfonamide derivatives as aminoacyl-tRNA synthetase inhibitors” (Oxford Drug Design Limited, priority 2015, dated 2021)
Structures can show the parent of a compound that is named as a salt. Where two headings read alike, the source gives them in different places.

Assays:
[1] = biological target: T1, EcoVRS (valyl-tRNA synthetase from Escherichia coli) (Escherichia coli, UniProt P07118); experiment: aaRS aminoacylation assay (ATP consumption), EcoVRS; format: biochemical; details: i.a. = inactive at a concentration below 50 uM
T1 construct: made in house; host or cells: Escherichia coli M15
T1 sequence (P07118 whole entry): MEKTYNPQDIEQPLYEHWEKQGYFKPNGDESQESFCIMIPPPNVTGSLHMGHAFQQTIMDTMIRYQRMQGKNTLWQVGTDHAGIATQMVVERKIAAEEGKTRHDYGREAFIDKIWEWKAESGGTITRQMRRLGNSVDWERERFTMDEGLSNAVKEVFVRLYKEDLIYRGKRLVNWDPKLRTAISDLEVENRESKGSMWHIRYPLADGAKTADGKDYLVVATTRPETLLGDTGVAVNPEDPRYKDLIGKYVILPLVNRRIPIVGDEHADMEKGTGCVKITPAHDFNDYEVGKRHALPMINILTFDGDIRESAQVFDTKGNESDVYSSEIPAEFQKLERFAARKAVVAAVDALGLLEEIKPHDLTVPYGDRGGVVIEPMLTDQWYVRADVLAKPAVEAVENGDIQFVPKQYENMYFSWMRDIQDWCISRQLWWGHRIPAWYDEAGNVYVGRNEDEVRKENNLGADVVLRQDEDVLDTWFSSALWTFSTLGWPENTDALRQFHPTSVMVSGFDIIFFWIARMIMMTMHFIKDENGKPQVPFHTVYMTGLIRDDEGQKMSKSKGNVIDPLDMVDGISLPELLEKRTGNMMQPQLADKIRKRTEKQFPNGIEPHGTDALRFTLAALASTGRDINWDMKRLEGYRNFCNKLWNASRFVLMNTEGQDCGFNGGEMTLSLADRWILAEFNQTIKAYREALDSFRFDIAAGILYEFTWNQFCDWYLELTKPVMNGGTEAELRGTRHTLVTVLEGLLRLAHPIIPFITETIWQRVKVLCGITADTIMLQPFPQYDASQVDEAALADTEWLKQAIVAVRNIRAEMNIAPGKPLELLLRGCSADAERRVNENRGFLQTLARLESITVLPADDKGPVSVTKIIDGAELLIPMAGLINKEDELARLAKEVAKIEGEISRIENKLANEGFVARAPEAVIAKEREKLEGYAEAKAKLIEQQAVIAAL
Experimental: (§1) The compounds have been tested for antibacterial activity in vitro as aminoacyl-tRNA synthetases (aaRS) inhibitors following the following process.
(§2) Leucyl-, valyl- and isoleucyl-tRNA synthetases (LRS, VRS and IRS, respectively) from Escherichia coli (Eco) and Staphylococcus aureus (Sau).
(§3) Escherichia coli M15 cells transformed with plasmid pQE-60, or pQE-70, containing the open-reading frame sequence of one targeted aaRS were induced with 1 mM IPTG (Isopropyl β-D-1-thiogalactopyranoside) for 3 h at 37° C. Bacterial cells were harvested and lysed with 20 mM NaH2PO4 (pH 8.0), 200 mM NaCl, 10 mM imidazole and protease inhibitor cocktail (Roche). Pathogenic aaRS was purified by nickel affinity standard chromatography. Protein concentration was determined by spectrophotometry.
(§4) tRNA^Leu, tRNA^Val and tRNA^Ile from E. coli and S. aureus were transcribed in vitro for 4 h at 37° C. using T7 RNA polymerase. Transcription reaction contained 40 mM Tris-HCl (pH 8.0), 22 mM MgCl2, 1 mM spermidine, 5 mM DTT, 0.01% Triton X-100, 4 mM GTP, 4 mM ATP, 4 mM UTP, 4 mM CTP, 16 mM GMP, […] T7 RNA polymerase and 150 μg BstNI digested plasmid. Once finished, the reaction was applied on a 6% polyacrylamide-8 M urea denaturing gel to purify the transcribed tRNA and discard any impurities. Purified tRNA was quantified with Nanodrop 2000 (Thermo Scientific).
(§5) The aminoacylation reaction catalyzed by aminoacyl-tRNA synthetases (aaRS) takes place in two steps. In the first step, aaRS activates its cognate amino acid with ATP; and in the second step the activated amino acid is loaded to its corresponding tRNA. This reaction can be summarized as follows: ARS+aa+ATP=ARS-aa-AMP+PPi ARS-aa-AMP+tRNA=aa-tRNA+AMP+ARS [2] (ARS, Aminoacyl-tRNA synthetase; aa, amino acid; ARS-aa-AMP, enzyme-bound to aminoacyl-adenylate; aa-tRNA, aminoacyl-tRNA).
(§6) The activity of the pathogenic aaRSs was monitored by measuring the ATP consumption rate, since this consumption is directly proportional to the activity of the aaRS. If the tested compound, at a single point concentration of 50 μM, is inhibiting the aminoacylation reaction, there is a decrease in the ATP consumption, compared to the control reaction without compound, allowing the calculation of an inhibition ratio.
(§7) When the inhibition ratio for a given compound was above 80%, IC50 determination was performed with the same enzymatic assay (using the commercial kit Kinase RR from BioThema AB, Sweden) in the presence of serial dilutions of inhibitor. Known inhibitors of LRS, VRS or IRS were used as a positive control of the assay. The IC50 was calculated based on nonlinear regression analysis.

[2] = biological target: T2, SauLRS (leucyl-tRNA synthetase from Staphylococcus aureus) (Staphylococcus aureus, UniProt Q2FXH2); experiment: aaRS aminoacylation assay (ATP consumption), SauLRS; format: biochemical; details: i.a. = inactive at a concentration below 50 uM; for IC50: read-out: IC50 SauLRS
T2 construct: made in house; host or cells: Escherichia coli M15
T2 sequence (Q2FXH2 1-805): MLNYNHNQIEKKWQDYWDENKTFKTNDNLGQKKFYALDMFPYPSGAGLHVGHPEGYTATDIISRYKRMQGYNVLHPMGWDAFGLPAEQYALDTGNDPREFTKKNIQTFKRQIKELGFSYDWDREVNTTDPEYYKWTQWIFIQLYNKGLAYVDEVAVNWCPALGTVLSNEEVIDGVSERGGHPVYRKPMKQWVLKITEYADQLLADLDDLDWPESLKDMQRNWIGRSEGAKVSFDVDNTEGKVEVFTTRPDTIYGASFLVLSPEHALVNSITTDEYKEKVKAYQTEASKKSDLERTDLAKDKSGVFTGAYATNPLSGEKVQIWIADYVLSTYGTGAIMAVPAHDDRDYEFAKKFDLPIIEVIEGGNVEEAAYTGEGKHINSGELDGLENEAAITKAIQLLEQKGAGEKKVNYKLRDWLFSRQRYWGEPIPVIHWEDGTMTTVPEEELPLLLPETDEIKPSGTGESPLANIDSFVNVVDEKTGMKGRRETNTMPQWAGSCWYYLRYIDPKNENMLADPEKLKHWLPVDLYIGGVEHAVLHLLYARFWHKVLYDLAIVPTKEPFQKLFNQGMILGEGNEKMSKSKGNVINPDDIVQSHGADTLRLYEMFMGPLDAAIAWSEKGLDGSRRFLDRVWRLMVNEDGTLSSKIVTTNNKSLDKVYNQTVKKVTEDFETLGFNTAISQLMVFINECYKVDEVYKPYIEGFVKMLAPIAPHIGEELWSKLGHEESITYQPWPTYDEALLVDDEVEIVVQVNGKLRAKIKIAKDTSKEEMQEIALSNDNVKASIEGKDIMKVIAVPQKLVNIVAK
Experimental: as §1, §2, §3, §4, §5, §6, §7

[3] = biological target: T3, EcoLRS (leucyl-tRNA synthetase from Escherichia coli) (Escherichia coli, UniProt P07813); experiment: aaRS aminoacylation assay (ATP consumption), EcoLRS; format: biochemical
T3 construct: made in house; host or cells: Escherichia coli M15
T3 sequence (P07813 whole entry): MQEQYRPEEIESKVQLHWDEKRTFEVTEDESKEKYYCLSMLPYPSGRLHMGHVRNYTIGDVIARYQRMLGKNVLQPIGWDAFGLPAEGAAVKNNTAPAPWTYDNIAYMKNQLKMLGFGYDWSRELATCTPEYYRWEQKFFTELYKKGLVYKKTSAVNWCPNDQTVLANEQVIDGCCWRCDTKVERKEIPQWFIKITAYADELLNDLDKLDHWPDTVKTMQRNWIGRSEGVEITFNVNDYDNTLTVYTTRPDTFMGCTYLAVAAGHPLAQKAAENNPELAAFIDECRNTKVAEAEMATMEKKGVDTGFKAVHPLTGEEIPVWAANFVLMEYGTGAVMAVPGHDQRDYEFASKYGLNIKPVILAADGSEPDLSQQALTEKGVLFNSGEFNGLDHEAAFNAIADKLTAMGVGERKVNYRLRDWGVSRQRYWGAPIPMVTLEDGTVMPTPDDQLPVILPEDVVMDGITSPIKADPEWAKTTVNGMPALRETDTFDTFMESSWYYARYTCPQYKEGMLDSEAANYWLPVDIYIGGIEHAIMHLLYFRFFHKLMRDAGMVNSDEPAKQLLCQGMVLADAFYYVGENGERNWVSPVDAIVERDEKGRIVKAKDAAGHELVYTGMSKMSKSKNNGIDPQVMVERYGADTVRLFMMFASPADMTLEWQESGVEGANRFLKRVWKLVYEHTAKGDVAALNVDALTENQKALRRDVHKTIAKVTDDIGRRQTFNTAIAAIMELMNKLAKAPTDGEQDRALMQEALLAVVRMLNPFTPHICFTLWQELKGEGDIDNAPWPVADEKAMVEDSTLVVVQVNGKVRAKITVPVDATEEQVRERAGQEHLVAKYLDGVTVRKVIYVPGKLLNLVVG
Experimental: as §1, §2, §3, §4, §5, §6, §7

[4] = i.a. = inactive at a concentration below 50 uM, read-out: IC50 EcoLRS

Row | Compound | IC50 EcoVRS [1] | IC50 SauLRS [2] | IC50 [3] [nM] | melting point | IC50 [2] [nM] | IC50 [3, 4] [nM] | IC50 EcoLRS ([3]; i.a. = inactive at a concentration below 50 uM)
1 | N[C@@H](CC1CC1)C(=O)NS(=O)(=O)c1cccc(-c2ccccc2)c1 (racemic) [Compound 5.10] | i.a | i.a | 47600 | 214.4 °C | – | – | –
2 | CC(C)C[C@H](N)C(=O)NS(=O)(=O)c1ccccc1 [Compound 5.1, (S)-2-amino-4-methyl-N-(phenylsulfonyl)pentanamide hydrochloride] | i.a. | – | – | – | 5400 | 35 | –
3 | CC(C)C[C@H](N)C(=O)NS(=O)(=O)c1ccc(Oc2ccccc2)cc1 [Compound 5.2] | i.a | – | 713 | 224 to 225 °C | 16300 | – | –
4 | CC(C)C[C@H](N)C(=O)NS(=O)(=O)c1ccccc1-c1ccccc1 [Compound 5.3] | i.a | – | 159 | 143 °C (dec.) | 14800 | – | –
5 | CC(C)C[C@H](N)C(=O)NS(=O)(=O)c1cccc(Cl)c1 [Compound 5.4] | i.a | – | 31 | – | 920 | – | –
6 | CC(C)C[C@H](N)C(=O)NS(=O)(=O)c1ccccc1Cl [Compound 5.5] | i.a | – | 121 | – | 13200 | – | –
7 | CC(C)C[C@H](N)C(=O)NS(=O)(=O)c1ccccc1F [Compound 5.6] | i.a | – | 233 | – | 17000 | – | –
8 | CCCCc1ccc(S(=O)(=O)NC(=O)[C@@H](N)CC(C)C)cc1 [Compound 5.7] | i.a | – | 668 | – | 4900 | – | –
9 | CC(C)C[C@H](N)C(=O)NS(=O)(=O)c1cccc(-c2ccccc2)c1 [Compound 5.9] | i.a | – | – | 149 °C (dec.) | 650 | 32 | –
10 | CC(C)C[C@H](N)C(=O)NS(=O)(=O)c1ccc(-c2ccccc2)cc1 [Compound 5.11] | i.a | – | 27600 | 212 °C (dec.) | 11300 | – | –
11 | CC(C)C[C@H](N)C(=O)NS(=O)(=O)c1c(C(C)C)cc(C(C)C)cc1C(C)C [Compound 5.12] | i.a | i.a | 32700 | 217 °C | – | – | –
12 | CC(C)C[C@H](N)C(=O)NS(=O)(=O)c1cccc2ccccc12 [Compound 5.13] | i.a | – | 59 | – | 16100 | – | –
13 | CC(C)C[C@H](N)C(=O)NS(=O)(=O)c1ccc2ccccc2c1 [Compound 5.14] | i.a | – | – | 215 °C (dec.) | 1000 | 65 | –
14 | CC(C)C[C@H](N)C(=O)NS(=O)(=O)c1cccc2c(N(C)C)cccc12 [Compound 5.16, (S)-2-amino-N-((5-(dimethylamino)naphthalen-1-yl)sulfonyl)-4-methylpentanamide hydrochloride] | i.a | i.a | 4100 | – | – | – | –
15 | CC(C)C[C@H](N)C(=O)NS(=O)(=O)c1cccc2cccnc12 [Compound 5.19] | i.a | – | 780 | – | 16800 | – | –
16 | CC(C)C[C@H](N)C(=O)NS(=O)(=O)c1ccc(Br)c2ccncc12 [Compound 5.22, trifluoroacetate] | i.a | – | 2400 | – | 11500 | – | –
17 | CC(C)C[C@H](N)C(=O)NS(=O)(=O)c1cccc2cc(C(N)=O)ncc12 [Compound 5.24, 8-(N-(L-Leucyl)sulfamoyl)isoquinoline-3-carboxamide] | i.a | – | 11 | – | 8500 | – | –
18 | CC(C)C[C@H](N)C(=O)NS(=O)(=O)c1cccc2c1CNCC2 [Compound 5.26, (S)-2-amino-4-methyl-N-((1,2,3,4-tetrahydroisoquinolin-8-yl)sulfonyl) pentanamide trifluoroacetate] | i.a | – | 176 | – | 20000 | – | –
19 | CNc1cc(-c2cccc(S(=O)(=O)NC(=O)[C@@H](N)CC(C)C)c2)nc(N)n1 [Compound 5.27] | i.a | – | 51 | – | 260 | – | –
20 | CC(C)C[C@H](N)C(=O)NS(=O)(=O)c1cccc(-c2cc(N(C)C)nc(N)n2)c1 [Compound 5.28] | i.a | – | 1600 | – | 4800 | – | –
21 | CSc1cc(-c2cccc(S(=O)(=O)NC(=O)[C@@H](N)CC(C)C)c2)nc(N)n1 [Compound 5.29] | i.a | – | 21 | – | 1200 | – | –
22 | Cc1cc(-c2cccc(S(=O)(=O)NC(=O)[C@@H](N)CC3CCC3)c2)nc(N)n1 [Compound 5.31] | i.a | i.a | 6200 | – | – | – | –
23 | Cc1cc(-c2cccc(S(=O)(=O)NC(=O)[C@@H](N)CC3CCCCC3)c2)nc(N)n1 [Compound 5.34] | i.a | i.a | – | – | – | – | i.a
24 | CC(C)C[C@H](N)C(=O)NS(=O)(=O)c1cccc(-c2cc(N)ncn2)c1 [Compound 5.46] | i.a. | – | 10 | – | 1300 | – | –
25 | CCc1cc(-c2cccc(S(=O)(=O)NC(=O)[C@@H](N)CC(C)C)c2)nc(N)n1 [Compound 5.47] | i.a. | – | 11 | – | 2150 | – | –
26 | CC(C)C[C@H](N)C(=O)NS(=O)(=O)c1cccc(-c2ncnc(N)n2)c1 [Compound 5.48] | i.a. | – | 3.4 | – | 530 | – | –
